Data set [1] concerns the target T1, human sirtuin-1 (Sirt1) (Homo sapiens, UniProt Q96EB6).
T1 construct: purchased BioMol, Hamburg, Germany
T1 sequence (Q96EB6 1-747): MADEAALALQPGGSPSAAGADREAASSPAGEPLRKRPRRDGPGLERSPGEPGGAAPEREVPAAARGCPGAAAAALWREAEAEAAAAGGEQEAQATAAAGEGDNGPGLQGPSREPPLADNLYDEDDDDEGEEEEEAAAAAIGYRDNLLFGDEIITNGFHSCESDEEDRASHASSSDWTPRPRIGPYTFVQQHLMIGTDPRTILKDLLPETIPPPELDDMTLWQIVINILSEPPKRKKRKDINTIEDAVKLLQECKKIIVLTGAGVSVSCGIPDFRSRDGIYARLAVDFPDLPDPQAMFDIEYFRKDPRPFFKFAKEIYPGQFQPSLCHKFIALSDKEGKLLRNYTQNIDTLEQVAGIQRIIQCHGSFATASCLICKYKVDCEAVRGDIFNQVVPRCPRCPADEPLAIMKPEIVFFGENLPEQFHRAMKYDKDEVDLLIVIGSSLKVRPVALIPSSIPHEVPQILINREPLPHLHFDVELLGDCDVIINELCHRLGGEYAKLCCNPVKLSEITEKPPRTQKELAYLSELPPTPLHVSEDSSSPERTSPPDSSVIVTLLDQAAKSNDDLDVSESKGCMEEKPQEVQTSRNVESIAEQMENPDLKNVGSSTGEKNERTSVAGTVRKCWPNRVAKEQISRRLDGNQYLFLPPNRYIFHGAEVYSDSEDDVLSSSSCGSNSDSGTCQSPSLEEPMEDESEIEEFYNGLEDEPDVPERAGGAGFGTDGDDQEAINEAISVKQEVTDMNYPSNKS
The experiment in a line: SIRT1 Fluorimetric Drug Discovery Kit, Sirt1 activation. The data set is classed as biochemical. The settings on record: for Fold increase in sirt1 activity versus control: Example 1(a), 10 µM, trans-resveratrol as control (1.0); for remaining activity at 0.3 µM / remaining activity at 1 µM / remaining activity at 3 µM / remaining activity at 10 µM / remaining activity at 30 µM: read-out: Activity [% control]. The protocol:
Compounds were tested for Sirt1 activation using the SIRT1 Fluorimetric Drug Discovery Kit (BioMol, Hamburg, Germany), Testing was carried out in duplicate following the manufacturer's instructions. Assay medium: 50mM Tris-HCl pH 8.0, 137 mM NaCl, 2.7 mM KCI, 1 mM MgCl2, 1 mg/ml bovine serum albumin (BSA). Stock solutions of the test compounds (10 mM in DMSO) were used, yielding a final concentration of 10 µM in the assay plate. Readout was obtained by measuring the fluorescence in a microtiter plate reader (excitation: 380 nm; detection: 440 nm).
The agonistic effect on Sirt1 was determined at different concentrations. For this purpose, the test compound stock solutions were diluted to yield concentrations of 0.3, 1, 3, 10 and 30 µM, respectively, in the assay, which was performed as described above. The compound of structure (I-1) was selected for this experiment.
The selectivity of the agonistic effect of the compound of formula (I-1) on different sirtuin isoforms was investigated. For this purpose, in vitro testing was performed as described in Example 1 using the respective SIRT1 Fluorimetric Drug Discovery Kit, SIRT2 Fluorimetric Drug Discovery Kit, and SIRT3 Fluorimetric Drug Discovery Kit (each from BioMol, Hamburg, Germany). […] The dose-response effect is slightly lesser on Sirt3. Table 3: Activity on Sirt1

Data set [2] relates to 5'-AMP-activated protein kinase (AMPK). Description: Western blot analysis of AMPK phosphorylation in NHEK.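 As to P-AMPK: Chemiluminescence band density of P-AMPK measured with Multigauge software.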 The data set is classed as cell-based, human. The settings on record: for AMPK phosphorylation [% Control] / P-AMPK / Ratio P-AMPK/ GAPDH: 48 h.
The target in data set [3] is T2, Sirt2 (Homo sapiens, UniProt Q8IXJ6).
T2 construct: purchased BioMol, Hamburg, Germany
T2 sequence (Q8IXJ6 1-389): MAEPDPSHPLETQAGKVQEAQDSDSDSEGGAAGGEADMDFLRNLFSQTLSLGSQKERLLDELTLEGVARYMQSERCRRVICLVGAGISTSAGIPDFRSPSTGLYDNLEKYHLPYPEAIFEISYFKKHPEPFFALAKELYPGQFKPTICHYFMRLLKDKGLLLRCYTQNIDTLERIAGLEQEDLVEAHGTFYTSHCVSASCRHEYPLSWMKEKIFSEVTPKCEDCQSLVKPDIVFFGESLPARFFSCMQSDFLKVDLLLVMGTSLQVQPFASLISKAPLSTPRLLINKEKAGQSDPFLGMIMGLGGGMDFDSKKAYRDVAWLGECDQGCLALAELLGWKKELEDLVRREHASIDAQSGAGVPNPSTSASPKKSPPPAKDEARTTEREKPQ
Description: SIRT2 Fluorimetric Drug Discovery Kit, Sirt2 activation. The format is biochemical. The settings on record: Example 2, Table 6, Sirt2.

Data set [4] has as its system normal human epidermal keratinocytes (NHEK). Description: MTT reduction assay, cytotoxicity in NHEK. The format is cell-based. As to conditions: for viability: NHEK, MTT. The protocol:
Culture conditions: 37 °C, 5 % CO2. Culture medium: Keratinocyte-SFM (serum-free medium) containing human recombinant epidermal growth factor (EGF 1-53) 0.25 ng/mL and bovine pituitary extract 25 µg/mL (Gibco; Cat. No. 17005-075), supplemented with gentamycin 25 µg/mL. Assay medium: Keratinocyte-SFM (Gibco; Cat. No. 10744-019), supplemented with gentamycin 25 µg/mL.
NHEK were seeded in 24-well plates (30.000 cells / well) and cultured in culture medium for 24 h and then in assay medium for another 24 h. Medium was then removed and replaced by assay medium containing the respective test compound or reference in defined concentrations.
Cytotoxicity was determined using the 3-(4,5-dimethylthiazol-2-yl)-2,5-diphenyltetrazoliumbromid (MTT) reduction assay (sse T. Mosmann (1983) J. Immunol. Methods. 65, pp. 55-63).
On the technique in general: Tetrazolium assays rely on reduction of a dye to a coloured formazan, in cell work by metabolically active cells.

Setting [5] is: Experiment 1, Membrane 1, 1000 µM.
Where [6] appears, read: Experiment 1, Membrane 2, 300 µM.

Where two headings read alike, the source gives them in different places. Some results are limits rather than exact numbers.

One may read the viability as a read-out of living cells in per cent, often relative to untreated cells. Low readings indicate a greater loss of cells, high ones better survival.

As for `CC(=O)c1c(O)cccc1/C=C/c1ccc(OC2OC(CO)C(O)C(O)C2O)cc1` (stereo not drawn) [(I-5)], the “Fold increase in sirt1 activity versus control” value (shortened to “Fold increase”) in data set [1] stood at 2.7.

On to `NC(=O)c1ncn([C@@H]2O[C@H](CO)[C@@H](O)[C@H]2O)c1N` [AICAR, 5-Amino-1-ß-D-ribofuranosyl-imidazole-4-carboxamide], for which, in data set [2] (setting [5]), the “AMPK phosphorylation [% Control]” value stood at 482 % Control, the P-AMPK came out at 1060 AU/mm^2 and the “Ratio P-AMPK/ GAPDH” value came out at 2.05. In data set [2] (Experiment 2, 1000 µM), the “AMPK phosphorylation [% Control]” value is 506 % Control, the P-AMPK was determined as 1377449 AU/mm^2 and the “Ratio P-AMPK/ GAPDH” value was determined as 0.572.

On to `COc1cc(/C=C/c2cccc(O)c2C(=O)O)cc(OC)c1O` [(I-4)], for which the “Fold increase” value in data set [1] is on record as 2.0.

As to `O=C(O)c1c(O)cccc1/C=C/c1ccc(O)cc1` [(I-2)], the “Fold increase” value in data set [1] was determined as 4.8.

Take `Oc1ccc(/C=C/c2cc(O)cc(O)c2)cc1` [trans-resveratrol]: the EC300 in data set [3] was above 30 µM; in data set [1] (Example 1(b), concentration that gave 3-times the basal response of the enzyme), above 30 µM; in data set [1] (Example 2, Table 6, Sirt1), above 30 µM. Besides, the viability in data set [4] (100 µM) is 2%; in data set [4] (300 µM), 43%. Moreover, in data set [4] (under assay conditions), the “concentrations with cytotoxic effects on NHEK” value is given as at least 100 µM. In addition, the remaining activity at 0.3 µM in data set [1] (Example 1(b), Table 2, 0.3 µM) was determined as 104%; in data set [1] (Example 2, Table 3, 0.3 µM) it was 121%. Besides, the remaining activity at 1 µM in data set [1] (Example 1(b), Table 2, 1.0 µM) amounted to 101%; in data set [1] (Example 2, Table 3, 1.0 µM), 100%. For the same molecule, the remaining activity at 3 µM is 100% in data set [1] (Example 1(b), Table 2, 3.0 µM) and 117% in data set [1] (Example 2, Table 3, 3.0 µM). Besides, the remaining activity at 10 µM stood at 108% in data set [1] (Example 1(b), Table 2, 10.0 µM) and 111% in data set [1] (Example 2, Table 3, 10.0 µM). For the same molecule, the remaining activity at 30 µM was 120% in data set [1] (Example 1(b), Table 2, 30.0 µM) and 145% in data set [1] (Example 2, Table 3, 30.0 µM). Further, the “AMPK phosphorylation [% Control]” value in data set [2] (setting [6]) amounted to 722 % Control; in data set [2] (Experiment 2, 10 µM), 81 % Control; in data set [2] (Experiment 2, 30 µM) it was 86 % Control; in data set [2] (Experiment 2, 100 µM), 117 % Control; in data set [2] (Experiment 2, 200 µM), 816 % Control; in data set [2] (Experiment 2, 300 µM), 21 % Control. Moreover, the P-AMPK stood at 1616 AU/mm^2 in data set [2] (setting [6]); 228626 AU/mm^2 in data set [2] (Experiment 2, 10 µM); 211794 AU/mm^2 in data set [2] (Experiment 2, 30 µM); 327757 AU/mm^2 in data set [2] (Experiment 2, 100 µM); 2361575 AU/mm^2 in data set [2] (Experiment 2, 200 µM); 69290 AU/mm^2 in data set [2] (Experiment 2, 300 µM). For the same molecule, the “dosage needed for similar enhancement of AMPK phosphorylation” value in data set [2] (effect similar to compound (I-1) at 30 µM) is reported as “at least 200 µM”.

For the molecule `COC(=O)c1c(/C=C/c2ccc(OC)cc2)cccc1OC` [(I-3)], the “Fold increase” value in data set [1] is 1.1.

Source of the values: patent EP2801357A1, “Carboxylated stilbenes for activating AMPK and sirtuins” (IMD Natural Solutions GmbH, priority 2013, dated 2014).
